Reference: the supplement of paper PMC12463676, “Small-molecule dissolution of stress granules by redox modulation benefits ALS models” (Nature Chemical Biology, 2025)

Experiments:
[1] = compound: NC(=O)CCCCC1CCSS1 [lipoamide]; assay: thermal stability z-score vs DMSO; higher = more thermally stabilized by treatment; conditions: HeLa, lipoamide concentration 100 µM
Protocol: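 Cellular thermal proteome profiling in HeLa cells. Cells were treated with 100 µM lipoamide for 1 h, with or without 1 mM arsenate for a further 1 h, then heated to ten temperatures (37-66.3 °C), and soluble protein was quantified by TMT mass spectrometry relative to 0.1% DMSO controls. The thermal stability score (sum of log2 fold changes minus the abundance score) was transformed to a z-score; mean of n = 3 experiments.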

[2] = compound: O=[As]([O-])(O)O.[K+] [potassium arsenate]; assay: as above; conditions: HeLa; arsenate concentration 1 mM
Protocol: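 Cellular thermal proteome profiling in HeLa cells treated with 1 mM arsenate for 1 h (DMSO pretreatment), heated to ten temperatures (37-66.3 °C). Soluble protein was quantified by TMT mass spectrometry relative to DMSO controls; the thermal stability score was transformed to a z-score; mean of n = 3 experiments.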

[3] = arsenate co-treatment: 1 mM arsenate 1 h
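Note: each temperature applied for 3 min, abundance score taken as mean log2 fold change at the two lowest temperatures, z-score obtained by mean subtraction and division by SD.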

Sequence of UniProt Q6ZXV5 (Q6ZXV5 whole entry): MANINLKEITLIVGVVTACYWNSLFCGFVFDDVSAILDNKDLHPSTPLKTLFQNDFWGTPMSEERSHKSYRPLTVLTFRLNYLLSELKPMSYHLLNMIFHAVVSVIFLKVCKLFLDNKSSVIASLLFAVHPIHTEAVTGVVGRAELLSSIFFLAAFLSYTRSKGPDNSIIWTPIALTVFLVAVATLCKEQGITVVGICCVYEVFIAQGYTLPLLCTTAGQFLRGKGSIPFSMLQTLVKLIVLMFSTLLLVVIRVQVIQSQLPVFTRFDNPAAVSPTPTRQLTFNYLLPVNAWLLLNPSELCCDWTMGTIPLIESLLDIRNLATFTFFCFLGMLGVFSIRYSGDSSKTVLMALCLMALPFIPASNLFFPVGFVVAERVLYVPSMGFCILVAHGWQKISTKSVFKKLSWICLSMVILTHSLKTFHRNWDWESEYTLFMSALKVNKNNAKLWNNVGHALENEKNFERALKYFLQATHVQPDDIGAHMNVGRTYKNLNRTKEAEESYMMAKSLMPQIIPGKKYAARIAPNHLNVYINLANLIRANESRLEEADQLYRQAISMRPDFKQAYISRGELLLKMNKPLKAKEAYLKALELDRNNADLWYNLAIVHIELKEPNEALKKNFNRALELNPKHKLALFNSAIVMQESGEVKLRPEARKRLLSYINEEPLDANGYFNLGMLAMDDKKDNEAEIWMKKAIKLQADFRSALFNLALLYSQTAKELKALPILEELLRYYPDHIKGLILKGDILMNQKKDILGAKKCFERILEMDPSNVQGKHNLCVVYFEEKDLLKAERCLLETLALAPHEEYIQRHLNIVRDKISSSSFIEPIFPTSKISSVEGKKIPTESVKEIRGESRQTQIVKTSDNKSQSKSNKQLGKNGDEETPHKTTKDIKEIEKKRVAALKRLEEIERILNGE
Sequence of UniProt Q96JJ7 (Q96JJ7 whole entry): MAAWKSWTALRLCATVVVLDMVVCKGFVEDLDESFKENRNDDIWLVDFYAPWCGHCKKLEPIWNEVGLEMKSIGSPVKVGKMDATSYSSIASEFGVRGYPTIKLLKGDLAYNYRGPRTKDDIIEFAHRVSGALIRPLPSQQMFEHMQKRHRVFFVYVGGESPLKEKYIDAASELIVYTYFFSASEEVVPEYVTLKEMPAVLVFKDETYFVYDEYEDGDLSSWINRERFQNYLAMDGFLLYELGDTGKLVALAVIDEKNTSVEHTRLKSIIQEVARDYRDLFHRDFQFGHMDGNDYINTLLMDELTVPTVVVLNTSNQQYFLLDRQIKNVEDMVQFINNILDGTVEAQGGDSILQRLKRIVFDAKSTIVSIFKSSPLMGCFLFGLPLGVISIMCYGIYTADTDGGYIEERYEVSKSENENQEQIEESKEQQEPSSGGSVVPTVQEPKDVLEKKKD
Sequence of UniProt Q86WV6 (Q86WV6 whole entry): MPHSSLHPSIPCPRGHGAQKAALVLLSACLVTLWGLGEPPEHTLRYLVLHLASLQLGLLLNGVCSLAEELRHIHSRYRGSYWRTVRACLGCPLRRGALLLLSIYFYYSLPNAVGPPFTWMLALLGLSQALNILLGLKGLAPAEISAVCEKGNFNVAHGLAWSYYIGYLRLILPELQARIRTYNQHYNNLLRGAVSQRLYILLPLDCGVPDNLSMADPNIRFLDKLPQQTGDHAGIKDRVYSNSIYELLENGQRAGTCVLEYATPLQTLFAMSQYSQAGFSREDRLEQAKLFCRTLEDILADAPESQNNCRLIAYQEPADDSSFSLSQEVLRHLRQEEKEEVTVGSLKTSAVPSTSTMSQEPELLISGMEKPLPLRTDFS
Sequence of UniProt Q9Y320 (Q9Y320 whole entry): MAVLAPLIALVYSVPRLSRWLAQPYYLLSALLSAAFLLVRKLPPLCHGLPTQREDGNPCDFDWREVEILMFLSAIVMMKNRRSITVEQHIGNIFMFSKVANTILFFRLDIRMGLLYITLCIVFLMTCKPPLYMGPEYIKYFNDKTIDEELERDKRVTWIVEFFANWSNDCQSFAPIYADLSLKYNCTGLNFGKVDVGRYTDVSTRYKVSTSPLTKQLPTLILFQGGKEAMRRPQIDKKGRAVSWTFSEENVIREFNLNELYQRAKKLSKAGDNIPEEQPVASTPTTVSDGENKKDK
Sequence of UniProt Q92973 (Q92973 whole entry): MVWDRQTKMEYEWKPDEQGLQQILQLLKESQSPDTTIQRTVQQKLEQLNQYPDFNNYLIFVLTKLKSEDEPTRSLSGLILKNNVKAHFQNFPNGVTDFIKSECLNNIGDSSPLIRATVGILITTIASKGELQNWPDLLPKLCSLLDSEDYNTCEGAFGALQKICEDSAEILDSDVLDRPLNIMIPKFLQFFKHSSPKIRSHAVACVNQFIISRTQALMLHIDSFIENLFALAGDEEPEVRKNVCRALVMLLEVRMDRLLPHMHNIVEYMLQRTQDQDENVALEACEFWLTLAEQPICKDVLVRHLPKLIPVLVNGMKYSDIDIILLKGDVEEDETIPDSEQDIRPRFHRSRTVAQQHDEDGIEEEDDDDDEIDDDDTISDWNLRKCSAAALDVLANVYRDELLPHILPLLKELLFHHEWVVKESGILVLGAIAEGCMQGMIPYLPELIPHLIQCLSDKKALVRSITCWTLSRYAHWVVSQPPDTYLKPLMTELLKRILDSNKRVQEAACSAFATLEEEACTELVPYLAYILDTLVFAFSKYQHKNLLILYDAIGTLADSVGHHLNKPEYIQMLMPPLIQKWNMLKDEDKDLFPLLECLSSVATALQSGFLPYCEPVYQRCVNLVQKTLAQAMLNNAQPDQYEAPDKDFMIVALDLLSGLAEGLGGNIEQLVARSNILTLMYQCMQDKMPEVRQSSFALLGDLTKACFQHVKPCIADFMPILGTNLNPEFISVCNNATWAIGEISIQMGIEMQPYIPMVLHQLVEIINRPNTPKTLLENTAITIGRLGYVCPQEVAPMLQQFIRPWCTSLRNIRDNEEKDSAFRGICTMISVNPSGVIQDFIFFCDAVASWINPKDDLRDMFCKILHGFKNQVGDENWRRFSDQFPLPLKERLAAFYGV
Sequence of UniProt P28289 (P28289 whole entry): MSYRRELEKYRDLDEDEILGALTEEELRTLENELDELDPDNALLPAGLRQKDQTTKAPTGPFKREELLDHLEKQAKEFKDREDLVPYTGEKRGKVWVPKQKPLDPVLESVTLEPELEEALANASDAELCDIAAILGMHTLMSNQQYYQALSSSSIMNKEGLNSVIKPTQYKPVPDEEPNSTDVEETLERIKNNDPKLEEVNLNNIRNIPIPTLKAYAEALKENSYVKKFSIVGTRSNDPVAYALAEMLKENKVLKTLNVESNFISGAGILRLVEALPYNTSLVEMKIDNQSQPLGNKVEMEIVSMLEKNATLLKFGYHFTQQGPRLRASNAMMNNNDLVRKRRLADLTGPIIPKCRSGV
Sequence of UniProt Q03169 (Q03169 whole entry): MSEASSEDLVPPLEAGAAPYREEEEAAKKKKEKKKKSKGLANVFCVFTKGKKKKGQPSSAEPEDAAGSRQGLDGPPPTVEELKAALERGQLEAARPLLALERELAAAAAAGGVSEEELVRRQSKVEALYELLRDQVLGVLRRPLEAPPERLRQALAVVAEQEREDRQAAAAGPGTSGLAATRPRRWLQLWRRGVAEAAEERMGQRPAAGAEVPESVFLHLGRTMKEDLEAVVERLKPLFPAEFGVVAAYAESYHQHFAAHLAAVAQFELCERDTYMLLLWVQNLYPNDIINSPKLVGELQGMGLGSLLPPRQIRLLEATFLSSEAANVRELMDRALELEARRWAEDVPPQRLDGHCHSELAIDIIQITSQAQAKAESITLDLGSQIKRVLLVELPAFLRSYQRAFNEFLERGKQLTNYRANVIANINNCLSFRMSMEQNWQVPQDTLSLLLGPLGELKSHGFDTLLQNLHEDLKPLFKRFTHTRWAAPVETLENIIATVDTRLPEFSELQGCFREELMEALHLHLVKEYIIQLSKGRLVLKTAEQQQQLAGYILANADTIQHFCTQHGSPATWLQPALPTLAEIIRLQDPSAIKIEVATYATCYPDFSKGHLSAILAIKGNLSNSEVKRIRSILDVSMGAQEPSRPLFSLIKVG
Sequence of UniProt Q13470 (Q13470 whole entry): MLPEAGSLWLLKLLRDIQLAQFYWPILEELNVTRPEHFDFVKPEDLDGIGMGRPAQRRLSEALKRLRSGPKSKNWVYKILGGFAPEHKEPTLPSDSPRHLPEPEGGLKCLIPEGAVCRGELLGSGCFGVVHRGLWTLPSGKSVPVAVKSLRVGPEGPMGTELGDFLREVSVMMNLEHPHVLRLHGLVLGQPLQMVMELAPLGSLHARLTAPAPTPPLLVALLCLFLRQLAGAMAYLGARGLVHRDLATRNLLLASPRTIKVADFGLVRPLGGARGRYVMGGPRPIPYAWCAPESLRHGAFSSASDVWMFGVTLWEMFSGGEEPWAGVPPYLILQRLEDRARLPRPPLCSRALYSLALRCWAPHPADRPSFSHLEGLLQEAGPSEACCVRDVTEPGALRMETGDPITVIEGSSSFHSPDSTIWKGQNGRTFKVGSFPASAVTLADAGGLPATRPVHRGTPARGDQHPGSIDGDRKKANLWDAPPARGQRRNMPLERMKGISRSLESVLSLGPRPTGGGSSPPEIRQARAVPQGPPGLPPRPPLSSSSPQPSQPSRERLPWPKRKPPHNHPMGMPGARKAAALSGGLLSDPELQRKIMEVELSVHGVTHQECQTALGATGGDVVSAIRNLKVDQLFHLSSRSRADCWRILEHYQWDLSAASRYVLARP
Sequence of UniProt Q8N511 (Q8N511 whole entry): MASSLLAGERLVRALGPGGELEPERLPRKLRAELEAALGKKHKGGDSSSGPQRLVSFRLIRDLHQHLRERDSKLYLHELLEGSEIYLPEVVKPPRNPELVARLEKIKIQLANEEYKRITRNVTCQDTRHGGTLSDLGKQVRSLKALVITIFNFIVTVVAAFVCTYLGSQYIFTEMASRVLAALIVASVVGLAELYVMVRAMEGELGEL
Sequence of UniProt P63313 (P63313 whole entry): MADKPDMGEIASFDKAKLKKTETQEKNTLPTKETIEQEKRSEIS

Target	thermal stability z-score [1, 3]	thermal stability z-score ([1]; arsenate co-treatment: none)	thermal stability z-score [2]
TMEM161A (UniProt Q9NX61)	-0.0739	-0.0906	0.0752
TMEM165 (UniProt Q9HC07)	0.669	-0.0469	0.116
TMEM173 (UniProt Q86WV6)	0.0822	-0.0914	-0.0763
TMEM181 (UniProt Q9P2C4)	0.128	0.201	0.205
TMEM186 (UniProt Q96B77)	-1.59	-0.895	-0.803
TMEM189 (UniProt A5PLL7)	-0.772	-0.595	-0.167
TMEM192 (UniProt Q8IY95)	-0.861	0.064	-0.137
TMEM199 (UniProt Q8N511)	-0.91	-1.15	0.171
TMEM205 (UniProt Q6UW68)	1.01	0.394	1.79
TMEM206 (UniProt Q9H813)	0.109	0.0248	-0.299
TMEM208 (UniProt Q9BTX3)	0.0799	-0.132	-0.159
TMEM209 (UniProt Q96SK2)	-0.644	0.109	1.25
TMEM214 (UniProt Q6NUQ4)	-0.283	-0.131	-0.768
TMEM223 (UniProt A0PJW6)	-0.653	0.466	1.09
TMEM237 (UniProt Q96Q45)	0.0486	0.457	-1.23
TMEM245 (UniProt Q9H330)	1.28	0.28	1.86
TMEM259 (UniProt Q4ZIN3)	-0.193	-0.832	0.701
TMEM263 (UniProt Q8WUH6)	0.283	-0.54	1.43
TMF1 (UniProt P82094)	-0.551	-0.475	-0.126
TMOD1 (UniProt P28289)	0.167	0.298	0.225
TMOD3 (UniProt Q9NYL9)	-0.494	0.384	0.732
TMPIT|TMEM120A	0.15	0.398	-0.269
TMPO	0.194	0.0563	2.87
TMSB10 (UniProt P63313)	0.8	0.288	0.014

Target	thermal stability z-score [1, 3]	thermal stability z-score ([1]; arsenate co-treatment: none)	thermal stability z-score [2]
TMTC3 (UniProt Q6ZXV5)	-1.23	-0.796	0.605
TMUB2 (UniProt Q71RG4)	1.9	1.78	2.27
TMX1 (UniProt Q9H3N1)	0.948	1.34	-0.418
TMX2 (UniProt Q9Y320)	-1.05	-2.85	-1.96
TMX3 (UniProt Q96JJ7)	-0.503	-0.791	1.29
TMX4 (UniProt Q9H1E5)	-1.34	-1.22	0.19
TNFAIP1 (UniProt Q13829)	-0.526	-0.699	-0.727
TNFAIP2 (UniProt Q03169)	0.331	0.638	0.97
TNFAIP3 (UniProt P21580)	-0.409	-0.303	-0.522
TNFAIP8 (UniProt O95379)	0.127	-0.421	0.147
TNFRSF1A (UniProt P19438)	-0.0438	-0.00708	0.164
TNFRSF10A (UniProt O00220)	-1.82	-1.91	-1.65
TNFRSF10B (UniProt O14763)	-0.753	-0.414	0.582
TNIP1 (UniProt Q15025)	-0.261	-0.828	-0.0487
TNIP2 (UniProt Q8NFZ5)	0.0235	0.193	0.126
TNK1 (UniProt Q13470)	0.0556	0.223	-0.0895
TNKS1BP1 (UniProt Q9C0C2)	-0.0132	0.146	3.12
TNPO1 (UniProt Q92973)	-1.32	-1.31	1.98
TNPO2 (UniProt O14787)	-1.26	-0.726	0.809
TNPO3 (UniProt Q9Y5L0)	-0.654	-0.367	-0.107
TNRC6A (UniProt Q8NDV7)	-0.105	-0.121	-0.416
TNRC6B (UniProt Q9UPQ9)	-0.194	-0.00843	-0.306
TNS1 (UniProt Q9HBL0)	-0.0135	-0.0322	-0.162
TNS2 (UniProt Q63HR2)	-0.0104	-0.0152	-0.101

Target	thermal stability z-score [1, 3]	thermal stability z-score ([1]; arsenate co-treatment: none)	thermal stability z-score [2]
TNS3 (UniProt Q68CZ2)	0.341	0.204	1.32
TNS4 (UniProt Q8IZW8)	-0.0278	-0.078	-0.0861
TOB1 (UniProt P50616)	-1.37	-0.305	0.159
TOE1 (UniProt Q96GM8)	0.165	0.146	-2.54
TOLLIP (UniProt Q9H0E2)	0.239	0.158	-0.313
TOM1 (UniProt O60784)	0.231	-0.536	0.244
TOM1L1 (UniProt O75674)	-1	-0.807	-0.623
TOM1L2 (UniProt Q6ZVM7)	-0.00565	-0.0362	0.0525
TOMM20 (UniProt Q15388)	0.133	1.67	1.73
TOMM22 (UniProt Q9NS69)	0.165	0.384	0.468
TOMM34 (UniProt Q15785)	0.52	0.356	-0.0204
TOMM40 (UniProt O96008)	0.59	0.961	1.15
TOMM70 (UniProt O94826)	-0.0648	0.115	-0.0776
TONSL (UniProt Q96HA7)	-0.0593	0.0162	-0.339
TOP1 (UniProt P11387)	0.0566	0.449	-0.734
TOP2A (UniProt P11388)	-0.141	0.0459	-0.293
TOP2B (UniProt Q02880)	0.61	0.212	-0.788
TOP3A (UniProt Q13472)	-0.152	0.21	-0.457
TOP3B (UniProt O95985)	0.2	-0.391	-0.73
TOPBP1 (UniProt Q92547)	0.0371	0.0228	-0.623
TOR1A (UniProt O14656)	-3.18	-3.08	0.174
TOR1AIP1 (UniProt Q5JTV8)	-2.27	-2.09	-0.146
TOR1AIP2	-3.46	-2.77	-0.134
